From US20100144891A1, “USE OF CYCLOHEXANEHEXOL DERIVATIVES IN THE TREATMENT OF AMYOTROPHIC LATERAL SCLEROSIS” (priority 2007, published 2010)
Entries after “also recorded” stand apart in the source; their conditions may differ.

How the values were obtained:
[1] = test system: folate-resistant mouse neural tube defects; settings: compared with myo-inositol; cited from earlier work
[2] = test system: cytidine monophosphorylphosphatidate; settings: cited from earlier work
SOD1 G93V protein [3] = molecular target: T1, SOD1 G93V protein (Homo sapiens, UniProt P00441, G94V); test: Trifluoroethanol (TFE)-induced SOD1 aggregation, thioflavin T (ThT) fluorescence; assay type: biochemical; settings: SOD1:scyllo-inositol ratio 1:1, 1:10, 1:20 vs untreated
T1 sequence (P00441 whole entry G94V): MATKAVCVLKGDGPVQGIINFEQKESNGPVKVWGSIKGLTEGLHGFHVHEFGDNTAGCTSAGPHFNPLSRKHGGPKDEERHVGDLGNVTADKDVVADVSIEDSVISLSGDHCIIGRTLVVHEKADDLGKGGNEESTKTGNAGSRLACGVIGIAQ
Excerpt: (§1) FIG. 1. Aggregation of SOD1 […] protein in the presence and absence of scyllo-inositol. […] Untreated (blue), SOD1:scyllo-inositol ratio of 1:1 (blue), 1:10 (pink) and 1:20(yellow). […] Inositol related compounds were screened in aggregation assays of apo-SOD1 and the following SOD1 mutants, […] and […]. The […] mutant was chosen for its fast aggregation kinetics, while the […] is intermediary between […] and the slow kinetics of apo-SOD1 (Stathopulos, P. B., et al. (2006) J. Biol. Chem. 281, 6184-6193). Using trifluoroethanol (TFE)-induced aggregation, all three SOD1 proteins aggregate maximally within a 2 hour window (Stathopulos P B, et al. (2003) Proc Natl Acad Soc USA. 100:7021-7026). […] The results were confirmed using a bis-ANS assay that determines the exposure of hydrophobic faces on proteins, as aggregation occurs dye binding to SOD1 should increase ([…], Cunningham P, et al (2002) J Biol. Chem. 277:47551-46556). In the presence of scyllo-inositol, the bis-ANS signal was lower than when protein was incubated alone.

[4] = molecular target: Apo-wild type SOD1 protein (Homo sapiens, UniProt P00441); test: Trifluoroethanol-induced aggregation of Apo-wild type SOD1, thioflavin T signal; assay type: biochemical; settings: SOD1:scyllo-inositol 1:20, 15 minute incubation
Sequence of Apo-wild type SOD1 protein (P00441 whole entry): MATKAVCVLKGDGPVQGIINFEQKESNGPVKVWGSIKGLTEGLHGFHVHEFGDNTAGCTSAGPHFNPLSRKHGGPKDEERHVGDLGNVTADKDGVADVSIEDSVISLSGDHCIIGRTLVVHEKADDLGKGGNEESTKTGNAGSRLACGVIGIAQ
Procedure: FIG. 3. ApoSOD aggregation-Trifluoroethanol-induced aggregation of Apo-wild type SOD1 protein in the presence and absence of scyllo-inositol after a 15 minute incubation. The thioflavin T signal increases in the presence of scyllo-inositol. Untreated (blue) and SOD1:scyllo-inositol ratio of 1:20(yellow). Inositol related compounds were screened in aggregation assays of apo-SOD1 and the following SOD1 mutants, […] and […]. The […] mutant was chosen for its fast aggregation kinetics, while the […] is intermediary between […] and the slow kinetics of apo-SOD1 (Stathopulos, P. B., et al. (2006) J. Biol. Chem. 281, 6184-6193). Using trifluoroethanol (TFE)-induced aggregation, all three SOD1 proteins aggregate maximally within a 2 hour window (Stathopulos P B, et al. (2003) Proc Natl Acad Soc USA. 100:7021-7026). […] The results were confirmed using a bis-ANS assay that determines the exposure of hydrophobic faces on proteins, as aggregation occurs dye binding to SOD1 should increase ([…], Cunningham P, et al (2002) J Biol. Chem. 277:47551-46556). In the presence of scyllo-inositol, the bis-ANS signal was lower than when protein was incubated alone.

apo-SOD1 G93S protein = apo-SOD1 G93S protein (Homo sapiens, UniProt P00441, G94S); test: Trifluoroethanol-induced aggregation of apo-SOD1 G93S, thioflavin T signal; assay type: biochemical; settings: SOD1:scyllo-inositol 1:20, as a function of time
Sequence of apo-SOD1 G93S protein (P00441 whole entry G94S): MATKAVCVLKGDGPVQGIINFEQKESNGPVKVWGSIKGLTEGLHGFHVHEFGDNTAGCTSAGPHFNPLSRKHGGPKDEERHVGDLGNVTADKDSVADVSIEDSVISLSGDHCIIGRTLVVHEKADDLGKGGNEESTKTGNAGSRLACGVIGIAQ
Excerpt: FIG. 4. ApoSOD1 G93S mutant aggregation—Trifluoroethanol-induced aggregation of apo-SOD1 G93S protein in the presence and absence of scyllo-inositol as a function of time. […] Untreated (blue) and SOD1:scyllo-inositol ratio of 1:20(yellow).
(§2) Inositol related compounds were screened in aggregation assays of apo-SOD1 and the following SOD1 mutants, G93V and G93S. The G93V mutant was chosen for its fast aggregation kinetics, while the G93S is intermediary between G93V and the slow kinetics of apo-SOD1 (Stathopulos, P. B., et al. (2006) J. Biol. Chem. 281, 6184-6193). Using trifluoroethanol (TFE)-induced aggregation, all three SOD1 proteins aggregate maximally within a 2 hour window (Stathopulos P B, et al. (2003) Proc Natl Acad Soc USA. 100:7021-7026). […] The results were confirmed using a bis-ANS assay that determines the exposure of hydrophobic faces on proteins, as aggregation occurs dye binding to SOD1 should increase (Rakhit R, Cunningham P, et al (2002) J Biol. Chem. 277:47551-46556). In the presence of scyllo-inositol, the bis-ANS signal was lower than when protein was incubated alone.

apoSOD1 and mutant SOD1 = test: Time course study of ThT signal (kinetics of assembly of SOD1 aggregates); assay type: biochemical; settings: in the presence of scyllo-inositol
Procedure: as §2, with “G93V” left out, “[…].” for “G93S.”, “G93S” left out, “([…],” for “(Rakhit R,”

SOD1 G93V protein [5] = molecular target: T1, SOD1 G93V protein; test: bis-ANS assay (exposure of hydrophobic faces on SOD1); assay type: biochemical; settings: in the presence of scyllo-inositol vs protein incubated alone
Excerpt: as §1

SOD1G93A = test: Negative stain electron microscopy of SOD1 aggregates/fibres; assay type: biochemical; settings: vs control samples / SOD1 incubated alone
Tg SOD1 G37R mice [6] = test: Rotarod test of motor function in ALS mouse model; assay type: in vivo
Procedure: (§3) FIG. 2. Motor function of TgSOD1 G37R mice treated or untreated with scyllo-inositol was evaluated using the Rotarod and footprint analyses of gait. […] Stride length 37±2 mm for treated and 18±2 mm for untreated mice (p<0.001). […] Mice were untreated (n=5) or treated with scyllo-inositol (n=5) in drinking water ad libitum from 6.5 months of age and are ongoing at 12 months. Starting at 7.5 months of age, mice underwent weekly evaluation of motor function using the Rotarod test. Mice were given three consecutive trials and the mean time to fall was calculated. […] At 12 months of age, two treated mice were still remaining on the rotarod for >50 sec; untreated mice lost this ability at 11 months of age. […] Scyllo-inositol treatment maintained gait with treated 37±2 versus 18±2 mm stride length in Tg mice (p<0.001).

Tg SOD1 G37R mice [7] = test: Foot print analyses of gait in ALS mouse model; assay type: in vivo
Procedure: as §3

OC1C(O)C(O)C(O)C(O)C1O [D-chiro-inositol]
prevention of folate-resistant neural tube defects [1]: more effective than myo-inositol

OC1C(O)C(O)C(O)C(O)C1O (stereo not drawn) [Epi-inositol, epi-inositol]
reversing lithium effects on cytidine monophosphorylphosphatidate [2]: effective

O[C@H]1[C@H](O)[C@@H](O)[C@H](O)[C@@H](O)[C@@H]1O [scyllo-inositol]
Thioflavin T (ThT) fluorescence signal (SOD1 G93V protein [3]): increased; also recorded: increases in a scyllo-inositol concentration dependent manner
Thioflavin T signal / trifluoroethanol-induced aggregation [4]: increases
Thioflavin T signal / trifluoroethanol-induced aggregation (apo-SOD1 G93S protein): increased; also recorded: increases in the presence of scyllo-inositol to a greater extent than in apo-SOD1 G93S protein alone
kinetics of assembly of SOD1 aggregates (apoSOD1 and mutant SOD1): greatly reduced; also recorded: most effective compound
bis-ANS signal (SOD1 G93V protein [5]): lower; also recorded: decreases
number of SOD1 aggregates/fibres (negative stain electron microscopy) (SOD1G93A): decreased; also recorded: no fibres were detected
onset of disease (Tg SOD1 G37R mice [6]; Tg SOD1 G37R mice, scyllo-inositol in drinking water ad libitum from 6.5 months of age, untreated 10.1±0.06): 10.6±0.22 months
time remaining on the rotarod (Tg SOD1 G37R mice [6]; at 12 months of age, two treated mice, untreated mice lost this ability at 11 months): > 50 s
motor function on the rotarod (latency to fall) (Tg SOD1 G37R mice [6]; treated vs untreated Tg SOD1 G37R mice, p=0.029): improvement; also recorded: significantly better
stride length (Tg SOD1 G37R mice [7]; treated Tg SOD1 G37R mice, untreated 18±2 mm, p<0.001): 37±2 mm
gait (foot print analyses) (Tg SOD1 G37R mice [7]; treated versus untreated Tg mice): maintained
